Measured values reported in paper PMC6107127, “Characteristics of the mitochondrial and cellular uptake of MPP^+, as probed by the fluorescent mimic, 4'I-MPP^+” (PLoS ONE, 2018).

Legend:
MN9D cells [1] = assay: Cellular uptake of MPP+ and 4'I-MPP+ (HPLC-UV / fluorescence); type: cell-based, mouse; conditions: 100 μM toxin, 60 min, 37 °C, KRB-HEPES
Procedure: Cells were seeded into 12-well plates at 0.25 x 10^6 cells/well and grown 2–3 days to about 70–80% confluency. The media was removed and a solution containing 100 μM MPP^+ or 4'I-MPP^+ in warm KRB-HEPES (or without Ca^2+ and with 1.4 mM EGTA) was added to each well and incubated at 37 °C for the desired period of time (see Figure legends for further details). After the incubations, the media were removed and cells were washed with ice-cold KRB-HEPES. Washed cells were suspended in 1.0 mL of ice-cold KRB-HEPES and 50 μL aliquots were withdrawn for protein determination. The remaining cell suspensions were centrifuged at 5000 x g at 4 °C for 5 min and the cell pellets were treated with 75 μL of 0.1 M HClO4. The coagulated proteins were pelleted by centrifugation at 13,200 x g at 4 °C for 8 min and the MPP^+ or 4'I-MPP^+ contents of the supernatants were determined by C18-reversed-phase HPLC-UV (HPLC-UV) as previously described using standard curves constructed from authentic standards. The standard curves for HPLC-UV quantifications were constructed using authentic samples of MPP^+ and 4'I-MPP^+ under the same HPLC-UV separation conditions (S1 Fig).
To quantify 4'I-MPP^+ uptake by fluorescence, MN9D or HepG2 cells grown in glass bottomed plates, washed, and reconstituted with KRB-HEPES (1.0 mL), pH 7.4, and mounted on the stage of a Nikon ECLIPSE Ti-S inverted fluorescence microscope. […]

[2] = Relative HPLC elution times and hydrophobicities; type: physicochemical
MN9D cells [3] = assay: Intracellular ROS (DCFH-DA); type: cell-based, mouse; conditions: 100 μM, 1 h at 37 °C
Procedure: Cells grown in 12-well plates were incubated with 10 μM DCFH-DA in KRB-HEPES for 1 h. […] After the incubations, cells were washed, harvested, solubilized with 0.1 M Tris buffer (pH 7.5) containing 1% Triton X-100, and cell debris were removed by centrifugation at 13,200 x g for 8 min at 4 °C. The content of ROS-oxidized DCFH product, 2',7'-dichlorofluorescein (DCF) in the supernatants were quantified by fluorescence (Ex/Em 488/524 nm). The data were normalized to the protein contents of individual samples. ROS productions in DCFH-DA (50 μM) loaded 250 μM 4'I-MPP^+ treated (4 h) live MN9D cells were visualized by confocal fluorescence microscopy at Ex/Em 488/524 nm using a Leica TCS SP5II microscope.

MN9D cells [4] = assay: Intracellular ATP levels; type: cell-based, mouse; conditions: 100 μM, 6 h at 37 °C
Procedure: Cells grown in 12-well plates were treated with 100 μM MPP^+ or 4'I-MPP^+ in KRB-HEPES for 6 h at 37 °C. After the treatments, cells were suspended in 1 mL of ice-cold KRB-HEPES and 50 μL samples were withdrawn for protein quantification. The remaining cell suspensions were centrifuged for 3 min at 3,500 x g at 4 °C and the cell pellets were treated with 1 mL of lysis buffer (0.1 M Tris, 1% Triton X-100, pH 7.5) for 2 min and centrifuged at 3,500 x g for 3 min to remove the cell debris. The ATP contents of the supernatants were measured using a fluorometric ATP assay kit (BioVision, Milpitas CA, USA) following the manufacture’s guidelines. All ATP levels were normalized to the protein content of each sample.

MN9D or HepG2 cells = assay: Mitochondrial membrane potential depolarization (TMRM); type: cell-based; conditions: 100 μM
Procedure: MN9D or HepG2 cells grown in glass-bottomed plates were treated with 50 nM TMRM (AnaSpec, Fremont CA, USA) in KRB-HEPES for 45 min in the dark. After mounting on the stage of a Nikon ECLIPSE Ti-S inverted fluorescence microscope, 15–20 ROIs with uniform fluorescence were selected and TMRM fluorescence at Ex/Em at 543/573 nm was recorded at 5 sec time intervals for 3 min. Then, MPP^+ or 4'I-MPP^+ was added to a final concentration of 500 or 100 μM, respectively and TMRM fluorescence measurements were continued for an additional 40 min for MPP^+ and 15 min for 4'I-MPP^+ at 15 sec time intervals. The background fluorescence was subtracted from the ROI fluorescence and averages of corrected data were used to estimate the magnitude of the mitochondrial membrane potential.

[5] = system: isolated MN9D cell mitochondria; assay: Uptake into isolated MN9D cell mitochondria; design: species or system mouse; conditions: 400 μM, 45 min at 37 °C
Procedure: Intact mitochondria were isolated from MN9D cells according to the published procedure of Frezza et al.. The isolated intact mitochondrial preparations were suspended in KCl buffer and aliquots (5 μL) were withdrawn for protein determination. Desired amounts of mitochondrial suspensions were incubated with 400 μM MPP^+ or 4'I-MPP^+ in KCl buffer for 45 min at 37 °C. After the incubation, incubates were centrifuged at 7,000 x g at 4 °C for 10 min and the mitochondrial pellets were treated with 75 μL of 0.1 M HClO4.

[6] = system: rat brain mitochondrial complex-I (NADH: ubiquinone oxidoreductase); assay: Ubiquinone dependent NADH oxidation (complex-I inhibition); type: biochemical; conditions: 200 μM
Procedure: Isolated rat brain mitochondria were lysed by freeze-thawing in hypotonic media containing 25 mM K3PO4 and 5 mM MgCl2, pH 7.2 [22]. The complex-I (i.e. NADH: ubiquinone oxidoreductase) activity of mitochondrial membrane fragments were determined according to the procedure of Birch-Machin and Turnbull. Briefly, mitochondrial membranes (50 μg protein) were incubated with 130 μM NADH (final concentration) and Antimycine A (2 μg/mL) in a 1.0 mL assay solution containing 25 mM K3PO4, 5 mM MgCl2, 2 mM KCN, 2.5 mg/mL bovine serum albumin, pH 7.2, for 2 min at 37 °C with or without rotenone, MPP^+ or 4'I-MPP^+ (for further details see the corresponding figure legends). The complex-I mediated ubiquinone dependent NADH oxidation was initiated by adding ubiquinone-1 to a final concentration of 65 μM and the initial rates of the reactions were monitored by following the decrease in absorbance at 340 nm with respect to 425 nm reference wavelength for 5 min.

Which “cellular uptake in 1 h” value (MN9D cells [1]) does the source give for C[n+]1ccc(-c2ccc(I)cc2)cc1 [4'I-MPP^+, 1-methyl-4-(4'-iodophenyl)pyridinium] here?
The value was 1.2 nmoles/mg of protein.

And the “relative elution time (hydrophobicity)” value ([2]; Buffer:CH3CN 70:30)?
Its value is 11.76.

What about the “relative elution time (hydrophobicity)” value ([2]; Buffer:CH3CN:MeOH 60:30:10) of the same molecule?
Its value is 8.88.

And the “relative elution time (hydrophobicity)” value ([2]; Buffer:CH3CN:MeOH 65:25:10)?
Its value is 12.56.

What about the “effect on ROS production” value (MN9D cells [3]) of the same molecule?
The value was “increase ROS production”.

And the “effect on intracellular ATP levels” value (MN9D cells [4])?
Its value is “deplete intracellular ATP levels”.

And the “time to depolarize the mitochondrial membrane by 20–50%” value (MN9D or HepG2 cells)?
Its value is 20 min.

What about the “rate of uptake into isolated mitochondria” value [5] of the same molecule?
Its value is “faster than that of MPP^+”.

What about the “inhibition of the complex-I activity” value [6] of the same molecule?
Its value is 46%.
